# Experimental data taken from patent US11179474B1, “Nanoparticle-based liver-targeting therapy and imaging” (priority 2015, dated 2021).
# Where no end group is shown, it is not given here.
# B1: GNP-GalC2-HSPEG8COOH-HSPEG8CO… ″low loading″ (peptide)
# peptide: RLNVGGTYFLTTRQ
# modifications: not fully specified (N-terminus); printed as GNP-GalC2-HSPEG8COOH-HSPEG8CONHRLNVGGTYFLTTRQ ″low loading″; also: on gold nanoparticle with galactose-C2 corona
# notes: Same construct as the high loading GNP but with fewer peptides per nanoparticle; also called "low loading" Au@Gal-C2:HSPEG8COOH:HSPEG8CO… GNPs
# B2: GNP-GalC2(50)-AL(50)-(Ac)YFLTTRQ (peptide)
# peptide: YFLTTRQ
# modifications: not fully specified (N-terminus); printed as GNP-GalC2(50)-AL(50)-(Ac)YFLTTRQ; also: linked via amino linker NH2-EG6-SH to gold nanoparticle with galactose-C2 corona
# notes: Gold nanoparticle with a corona of galactose-C2-SH and amino linker in approximately 50:50 ratio; also called Au@GalC2:AL:AL-(Ac)-YFLTTRQ
# B3: GNP-GalC2-HSPEG8COOH-HSPEG8CO… ″high loading″ (peptide)
# peptide: RLNVGGTYFLTTRQ
# modifications: not fully specified (N-terminus); also: on gold nanoparticle with galactose-C2 corona
# notes: Gold nanoparticle with a corona of galactose-C2 and HSPEG8COOH ligands; Approximately 4 peptides per nanoparticle core, so the copy number is approximate; also called "high loading" Au@Gal-C2:HSPEG8COOH:HSPEG8CO… GNPs
# Key:
# HepG2 = assay: MTT cell viability assay, payload-carrying LacLL nanoparticles vs free drug; type: cell-based, human; conditions: for IC50: HepG2, concentration based on drug amount, FIG. 7: 72 h after treatment
# Experimental: The human hepatocellular carcinoma cell line HepG2 was used in the assay.
# HepG2 cells were grown in a T-75 flask. For the transfer of the cell the medium was removed from the flask and the cells were trypsinated for 5 minutes. The cells were collected in a Falcon tube and diluted with complete cell medium. The cell counting was conducted in a Neubauer chamber. A cell solution was prepared to seed 4000 cells per well (200 μL per well). The microtiter plate was incubated for 24 h at 37° C.
# For each NP and drug, formulations in cell medium were prepared. The compounds were tested in different concentrations (0.01, 0.05, 0.2, 1, 5, 25 and 125 μM based on drug amount). For the treatment, the cell medium was removed from all wells and exchanged for drug formulations. 200 μl of treatments per triplicate was added to each well. The microtiter plates were incubated for 24 h, 48 h and 72 h at 37° C.
# 1.5 mL MTT solution (8.0 mg in 1.6 mL DMSO) was diluted with complete cell medium (phenol-red free). The treatment cell medium was removed from the microtiter plate, the wells were washed with 100 μL PBS and 100 μL of the MTT reactive solution was added to each well. After one hour incubation at 37° C. the MTT solution was removed and 100 μL DMSO was added to dissolve the formazan dye. Absorbance was measured at 570 nm.
# Data were analysed using OriginPro8. The normalized data were plotted and the curve was fitted using a non-linear regression curve fit (sigmoidal dose-response curve with variable slope). The Absolute IC50 values were obtained by interpolation.
# HCC cells = assay: In vitro targeting of GNPs to HCC cells (counts per field at 20x magnification); type: cell-based; conditions: relative to base GNP lacking the peptide
# Excerpt: (SEQ ID NO: 1), via its N-terminus (approx. 4 peptide molecules per nanoparticle).
# Several base/peptide targeted GNPs were screened in vitro. GNPs having a mixed corona comprising galactose-C2-SH (Gal-C2) ligands and HSPEG8COOH were synthesised according to methodology analogous to that described above in Examples 1 and 2, with however galactose-C2-SH replacing glucose-C2-SH and HSPEG8COOH (also abbreviated SH-EG6-COOH or SH—(OCH2CH2)6-COOH) replacing the amino linker NH2-EG6-SH.
# The glypican-3 peptide described in U.S. Pat. No. 8,388,937B2 (the contents of which are expressly incorporated herein by reference)—see SEQ ID NO: 1 thereof, which has the amino acid sequence: […] (SEQ ID NO: 1) was linked to the terminal COOH group of a proportion of the HSPEG8COOH ligands via the N-terminus of said peptide. In a “high loading” GNP construct (see row 1 in the table below), approximately 4 peptides were linked per nanoparticle core. The “high loading” Au@Gal-C2:HSPEG8COOH:HSPEG8CONH[…] The “low loading” Au@Gal-C2:HSPEG8COOH:HSPEG8CONH[…]
# [1] = molecular target: T1, glypican-3 (on HCC cells) (UniProt P51654 25-554); assay: in vitro targeting of GNPs to HCC cells, relative to base GNP lacking the peptide
# T1 construct: whole, on cells; also called GLY-3
# [2] = molecular target: T1, glypican-3 (on HCC cells); assay: in vitro targeting of GNPs to HCC cells, relative to base nanoparticle lacking the peptide
# [3] = molecular target: T1, glypican-3 (on HCC cells); assay: in vitro targeting of GNPs to HCC cells, counts per field at 20x magnification, relative to base GNP lacking the peptide
# T1 sequence (P51654 25-554 limits assumed, form in doubt): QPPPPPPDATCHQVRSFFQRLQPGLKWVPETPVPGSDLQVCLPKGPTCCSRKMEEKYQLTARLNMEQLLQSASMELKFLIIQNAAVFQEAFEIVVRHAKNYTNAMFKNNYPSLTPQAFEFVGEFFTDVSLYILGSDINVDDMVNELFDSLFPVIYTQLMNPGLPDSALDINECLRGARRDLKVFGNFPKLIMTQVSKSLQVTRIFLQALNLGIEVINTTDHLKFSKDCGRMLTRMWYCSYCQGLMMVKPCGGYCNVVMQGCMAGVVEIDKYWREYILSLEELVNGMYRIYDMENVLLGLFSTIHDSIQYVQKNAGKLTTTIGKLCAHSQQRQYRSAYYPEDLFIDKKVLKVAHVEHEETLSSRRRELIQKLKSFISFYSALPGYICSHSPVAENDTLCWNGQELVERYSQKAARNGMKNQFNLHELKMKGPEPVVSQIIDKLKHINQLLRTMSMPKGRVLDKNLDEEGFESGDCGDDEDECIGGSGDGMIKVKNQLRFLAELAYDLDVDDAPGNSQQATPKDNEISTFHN
molecule,measurement,setting,value
platinum-(IV)-succinate,IC50,HepG2,38.6 µM
same,IC50,HepG2; listed as Pt(IV)-succinate,38.6 µM
GNP-GalC2-HSPEG8COOH-HSPEG8CONHRLNVGGTYFLTTRQ ″high loading″ (not fully specified (N-terminus); also: on gold nanoparticle with galactose-C2 corona),Fold-targeting (over base particle),HCC cells; listed as “high loading” Au@Gal-C2:HSPEG8COOH:HSPEG8CONHRLNVGGTYFLTTRQ,approximately 7 fold
GNP-GalC2(50)-AL(50)-(Ac)YFLTTRQ,Fold-targeting (over base particle),HCC cells; listed as Au@GalC2:AL:AL-(Ac)-YFLTTRQ,approximately 5 fold
"COc1cccc2c1C(=O)c1c(O)c3c(c(O)c1C2=O)C[C@@](O)(C(=O)CO)C[C@@H]3O[C@H]1C[C@H](N)[C@H](O)[C@H](C)O1 [Doxorubicin, doxorubicin]","cytotoxicity, free drug compared with pay-loaded nanoparticle","HepG2; HepG2, MTT",slightly higher cytotoxicity
GNP-GalC2-HSPEG8COOH-HSPEG8CONHRLNVGGTYFLTTRQ ″low loading″ (not fully specified (N-terminus); printed as GNP-GalC2-HSPEG8COOH-HSPEG8CONHRLNVGGTYFLTTRQ ″low loading″; also: on gold nanoparticle with galactose-C2 corona),Fold-targeting (over base particle),HCC cells; listed as “low loading” Au@Gal-C2:HSPEG8COOH:HSPEG8CONHRLNVGGTYFLTTRQ,approximately 4.6 fold
B1,Fold-targeting (over base particle),[1],4.6 fold
B2,Fold-targeting (over base particle),[2],5 fold
B3,Fold-targeting (over base particle),[3],7.1 fold
